The source of these data is patent publication US20260184663A1, “INDENE COMPOUNDS, PHARMACEUTICAL COMPOSITIONS THEREOF, AND THEIR THERAPEUTIC APPLICATIONS” (NucMito Pharmaceuticals co. Ltd., priority 2022, published 2026).

Type in all cases: cell-based
Test [1] has as its system A549 (lung adenocarcinoma). The test is described as follows: Antiproliferative activity (CCK-8 cell viability), A549. The conditions noted are these: Homo sapiens, 72 h; for inhibition at 3.3 µM: Compound concentration: 3.3 μM; for inhibition at 3.3 µM / inhibition at 10 µM: read-out: Antiproliferative activity in cancerous cells, A549 (inhibition of cell growth); for inhibition at 10 µM: Compound concentration: 10 μM. In a few lines:
(§1)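 Cells were seeded at 2,000-5,000/well (HeLa in MEM, HepG2 and SW480 in DMEM, A549 in F-12K, all with 10% FBS) and treated with compound at 3.3, 10 or 30 μM for 72 h at 37° C. CCK-8 was added for 4 h, absorbance was read at 450 nm, and viability was expressed relative to DMSO-treated wells.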

The test system of test [2] is A431 (epidermoid carcinoma). The test is described as follows: Antiproliferative activity (CCK-8 cell viability), A431. The settings on record: Homo sapiens, 72 h; for inhibition at 3.3 µM: A-431, Compound concentration: 3.3 μM; for inhibition at 3.3 µM / inhibition at 10 µM: read-out: Antiproliferative activity in cancerous cells, A431 (inhibition of cell growth); for inhibition at 10 µM: A-431, Compound concentration: 10 μM. In a few lines:
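Cell viability of compound-treated A431 cells was measured with a Cell Counting Kit-8. Each well received 10 μL of CCK-8 after 72 h of compound exposure, followed by 4 h incubation at 37° C. and a 450 nm plate-reader measurement. Percent viability was calculated relative to DMSO controls across replicates.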

A further test deals with SW480 (colon cancer). The test is described as follows: Antiproliferative activity (CCK-8 cell viability), SW480. The conditions noted are these: Homo sapiens, 72 h; for inhibition at 3.3 µM: Compound concentration: 3.3 μM; for inhibition at 3.3 µM / inhibition at 10 µM: read-out: Antiproliferative activity in cancerous cells, SW480 (inhibition of cell growth); for inhibition at 10 µM: Compound concentration: 10 μM. In a few lines: as §1

The subject of another test is HeLa (cervical cancer). The test can be described thus: Antiproliferative activity (CCK-8 cell viability), HeLa. The conditions noted are these: Homo sapiens, 72 h, read-out: Antiproliferative activity in cancerous cells, HELA (inhibition of cell growth); for inhibition at 3.3 µM: Compound concentration: 3.3 μM; for inhibition at 10 µM: Compound concentration: 10 μM. In a few lines:
as §1

Test [3] deals with MDA-MB-231 (breast cancer). The test can be described thus: Antiproliferative activity (CCK-8 cell viability), MDA-MB-231. The settings on record: Homo sapiens, 72 h, read-out: Antiproliferative activity in cancerous cells, MDA-MB-231 (inhibition of cell growth); for inhibition at 3.3 µM: Compound concentration: 3.3 μM; for inhibition at 10 µM: Compound concentration: 10 μM. The essentials: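 In this CCK-8 viability assay, MDA-MB-231 cells maintained in Dulbecco's modified Eagle's medium containing 10% fetal bovine serum were placed in 96-well plates (2,000-5,000 cells/well) and treated with compound for 72 h at 37° C. A 4 h incubation with 10 μL CCK-8 followed, plates were read at 450 nm, and viability was expressed against DMSO vehicle wells across replicates.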

Another test concerns HepG2 (liver cancer). The test is described as follows: Antiproliferative activity (CCK-8 cell viability), HepG2. The conditions noted are these: Homo sapiens, 72 h; for inhibition at 3.3 µM: Compound concentration: 3.3 μM; for inhibition at 3.3 µM / inhibition at 10 µM: read-out: Antiproliferative activity in cancerous cells, HepG2 (inhibition of cell growth); for inhibition at 10 µM: Compound concentration: 10 μM. In a few lines:
as §1

For test [4], the system named is B16F10 (malignant melanoma). The test can be described thus: Antiproliferative activity (CCK-8 cell viability), B16F10. The settings on record: Mus musculus, 72 h; for inhibition at 3.3 µM: B16-F10, Compound concentration: 3.3 μM; for inhibition at 3.3 µM / inhibition at 10 µM: read-out: Antiproliferative activity in cancerous cells, B16F10 (inhibition of cell growth); for inhibition at 10 µM: B16-F10, Compound concentration: 10 μM. In a few lines:
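Attached B16F10 cells in 96-well plates were incubated with compound at 37° C for 72 h, followed by 10 μL CCK-8 reagent per well and a further 4 h incubation. A multi-well plate reader measured absorbance at 450 nm. Percent viability across replicates was calculated against DMSO vehicle-treated cells.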

Test [5] deals with alpha-smooth muscle actin (α-SMA). The test is described as follows: Inhibition of TGF-β induced expression of alpha-smooth muscle actin (α-SMA) in CFSC cells (western blot). The settings on record: compound at 10 μM, TGF-β (10 ng/mL), 24 hours, band intensity vs TGF-β only. In a few lines:
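Values are percent reduction of α-SMA band intensity relative to cells given TGF-β alone, quantified by Western blot densitometry with β-actin probed. Compound was applied at 10 μM alongside 10 ng/mL TGF-β to serum-free CFSC cultures for 24 h at 37 °C.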
(In general: In western blotting, separated proteins are transferred to a membrane and probed.)

As to `O=C(O)CC1=C(Cc2ccc(C(F)(F)F)cc2)/C(=C/c2ccc(Oc3ccc(F)cc3)cc2)c2ccc(F)cc21` [C11, (Z)-2-(5-Fluoro-1-(4-(4-fluorophenoxy)benzylidene)-2-(4-(trifluoromethyl)-benzyl)-1H-inden-3-yl)acetic acid], the inhibition at 3.3 µM (in test [1]; in test [2]; in the test on SW480 (colon cancer); with HeLa (cervical cancer); in test [3]; in the test with HepG2 (liver cancer)) was at least 50% in each case. For the same compound, in test [4], the inhibition at 3.3 µM is at least 50%. Also, the inhibition at 10 µM (in test [1]; in test [2]; with SW480 (colon cancer); in the test with HeLa (cervical cancer); in test [3]; with HepG2 (liver cancer)) was at least 50% each time. In addition, the values for the inhibition at 10 µM in test [4] and in test [5] were at least 50% and over 80%, respectively.

In the case of `O=C(O)CC1=C(C2CCc3ccc(F)cc32)/C(=C/c2ccc(Oc3ccc(F)cc3)cc2)c2ccc(F)cc21` (centres unmarked) [C12, (Z)-2-(5′,6-Difluoro-1′-(4-(4-fluorophenoxy)benzylidene)-2,3-dihydro-1H,1′H-[1,2′-biinden]-3′-yl)acetic acid], the inhibition at 3.3 µM (in test [1]; in test [2]; with SW480 (colon cancer); in the test on HeLa (cervical cancer); in test [3]; with HepG2 (liver cancer)) was at least 50% in each case. Further, the inhibition at 3.3 µM in test [4] is at least 50%. The inhibition at 10 µM (in test [1]; in test [2]; in the test with SW480 (colon cancer); in the test on HeLa (cervical cancer); in test [3]; in the test with HepG2 (liver cancer)) was at least 50% throughout. Besides, the inhibition at 10 µM is at least 50% in test [4] and over 80% in test [5].

As to `O=C(O)CC1=C(Cc2ccc(C(F)(F)F)cc2)/C(=C/c2cccc(Oc3ccccc3)c2)c2ccc(F)cc21` [C13, (Z)-2-(5-Fluoro-1-(3-phenoxybenzylidene)-2-(4-(trifluoromethyl)benzyl)-1H-inden-3-yl)acetic acid], the inhibition at 3.3 µM (in test [1]; in test [2]; in the test with SW480 (colon cancer); in the test on HeLa (cervical cancer); in test [3]; in the test with HepG2 (liver cancer)) was at least 50% in each case. Besides, the inhibition at 3.3 µM in test [4] was at least 50%. In addition, the inhibition at 10 µM (in test [1]; in test [2]; with SW480 (colon cancer); in the test on HeLa (cervical cancer); in test [3]; in the test with HepG2 (liver cancer)) was at least 50% in each case. Besides, the inhibition at 10 µM is at least 50% in test [4] and over 80% in test [5].

On to `O=C(O)CC1=C(Cc2ccc(F)cc2)/C(=C/c2ccc(Oc3ccc(F)cc3)cc2)c2ccc(F)cc21` [C14, (Z)-2-(5-Fluoro-2-(4-fluorobenzyl)-1-(4-(4-fluorophenoxy)benzylidene)-1H-inden-3-yl)acetic acid], for which the inhibition at 3.3 µM in test [1] is under 30%; in test [2] it was at least 50%; in the test with SW480 (colon cancer), under 30%; in the test on HeLa (cervical cancer), at least 50%; in test [3], at least 50%; in the test on HepG2 (liver cancer) it was at least 50%. In test [4], the inhibition at 3.3 µM was at least 50%. Besides, the inhibition at 10 µM (in test [1]; in test [2]; in the test on SW480 (colon cancer); in the test on HeLa (cervical cancer); in test [3]; in the test on HepG2 (liver cancer)) was at least 50% in each case. The inhibition at 10 µM in test [4] was at least 50%; in test [5], over 80%.

In the case of `O=C(O)CC1=C/C(=C/c2cccc(Oc3ccccc3)c2)c2cc(OCC(F)(F)F)ccc21` [C15, (Z)-2-(1-(3-Phenoxybenzylidene)-6-(2,2,2-trifluoroethoxy)-1H-inden-3-yl)acetic acid], the inhibition at 3.3 µM in test [1] was under 30%; in test [2] it was under 30%; in the test on SW480 (colon cancer), under 30%; with HeLa (cervical cancer) it was under 30%; in test [3], 30 to 50%; with HepG2 (liver cancer) it was under 30%. The inhibition at 3.3 µM in test [4] is under 30%. Besides, the inhibition at 10 µM in test [1] was under 30%; in test [2], under 30%; in the test with SW480 (colon cancer), under 30%; in the test with HeLa (cervical cancer), 30 to 50%; in test [3], at least 50%; in the test with HepG2 (liver cancer), under 30%. For the same compound, the inhibition at 10 µM in test [4] and in test [5] was under 30% in each case. In addition, the inhibition at 30 µM in test [1] (Compound concentration: 30 μM, read-out: Antiproliferative activity in cancerous cells, A549) is under 30%; in test [2] (A-431, Compound concentration: 30 μM, read-out: Antiproliferative activity in cancerous cells, A431), under 30%; with SW480 (colon cancer) (Compound concentration: 30 μM, read-out: Antiproliferative activity in cancerous cells, SW480), under 30%; in the test with HepG2 (liver cancer) (Compound concentration: 30 μM, read-out: Antiproliferative activity in cancerous cells, HepG2), 30 to 50%; in test [4] (B16-F10, Compound concentration: 30 μM, read-out: Antiproliferative activity in cancerous cells, B16F10) it was 30 to 50%.

Regarding `CC1=C(CC(=O)O)c2ccc(F)cc2/C1=C\c1cccc(Oc2ccccc2)c1` [C16, (Z)-2-(6-Fluoro-2-methyl-1-(3-phenoxybenzylidene)-1H-inden-3-yl)acetic acid], the inhibition at 3.3 µM is under 30% in test [1]; at least 50% in test [2]; under 30% with SW480 (colon cancer); under 30% in the test on HeLa (cervical cancer); at least 50% in test [3]; at least 50% in the test on HepG2 (liver cancer). Besides, the inhibition at 3.3 µM in test [4] was under 30%. In addition, the inhibition at 10 µM in test [1] is 30 to 50%; in test [2], at least 50%; with SW480 (colon cancer), under 30%; with HeLa (cervical cancer) it was under 30%; in test [3], 30 to 50%; in the test on HepG2 (liver cancer), at least 50%. The inhibition at 10 µM was at least 50% in test [4] and over 80% in test [5].

Consider `CC1=C(CC(=O)O)c2cc(C)ccc2/C1=C\c1cccc(Oc2ccccc2)c1` [C17, (Z)-2-(2,5-Dimethyl-1-(3-phenoxybenzylidene)-1H-inden-3-yl)acetic acid], for which the inhibition at 3.3 µM in test [1] is under 30%; in test [2] it was 30 to 50%; in the test with SW480 (colon cancer), under 30%; in the test with HeLa (cervical cancer), under 30%; in test [3], 30 to 50%; in the test on HepG2 (liver cancer), 30 to 50%. Moreover, in test [4], the inhibition at 3.3 µM is under 30%. The inhibition at 10 µM in test [1] is at least 50%; in test [2], at least 50%; in the test on SW480 (colon cancer), under 30%; with HeLa (cervical cancer) it was 30 to 50%; in test [3], at least 50%; in the test on HepG2 (liver cancer) it was at least 50%. Moreover, the inhibition at 10 µM is under 30% in test [4] and over 80% in test [5].
